# In the METLIN SMRT retention time set (Domingo-Almenara et al. 2019):
# Test: gradient 5% acetonitrile 3 min, to 50% in 2 min, to 85% in 15 min, held 3 min, 100 µL/min
# Settings: column: Zorbax Extend-C18 2.1 x 50 mm; eluents: water / acetonitrile, 0.1% formic acid
# Procedure, shortened: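 The system's dead and dwell volumes were 40 μL and 900 μL, with a Zorbax Extend-C18 column (2.1 × 50 mm, 1.8 μm) run at 100 μL/min in water and acetonitrile containing 0.1% formic acid each. Pure standards were analyzed in mixtures of ~100 molecules by HPLC–quadrupole time-of-flight mass spectrometry in positive and negative ionization mode. Retention time was assigned from computationally picked, manually inspected adduct peaks.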
row,Compound,RP-LC retention time [s]
1,COc1ccc(Cl)cc1Nc1nc(N)nc(CN2CCN(c3ccccn3)CC2)n1,612
2,CCS(=O)(=O)Nc1ccc(C2=NN(C(=O)c3ccco3)C(c3cccs3)C2)cc1 (centres undefined),764
3,CC(C)c1nc2c(NC(=O)C3CC3)cccn2n1,733
4,Cc1oc(-c2ccccc2)nc1Cc1noc(COc2ccccc2)n1,1090
5,COCCNC(=O)c1ccc(-n2nc(C)c3c2CCCC3=O)cc1,633
6,C=CCN1CC(c2nc3ccccc3n2CC(O)COc2cccc(C)c2)CC1=O (centres undefined),721
7,Cc1cc2c(=O)n(CC(=O)Nc3ccc(F)c(C)c3)c3cccnc3n2n1,748
8,Cc1nn2c(CNS(=O)(=O)c3ccc(F)c(Cl)c3)c(-c3ccccc3)nc2s1,942
9,Cc1ccc2c(=O)c3c([nH]c2c1C)CCN(CC(=O)Nc1ccc(F)cc1F)C3,615
10,COc1cccc(NC(=O)C2CCN(S(=O)(=O)c3ccc4c(c3)sc(=O)n4C(C)C)CC2)c1,960
11,Cc1cc(N2CCN(C)CC2)nc2ccc(NC(=S)N3CCC(Cc4ccccc4)CC3)cc12,636
12,O=C(NCC1CCCO1)c1cc2cccnc2n(Cc2ccccc2F)c1=O (centres undefined),932
13,COC(=O)c1cnn2c(C)c(Cc3ccccc3)c(C)nc12,835
14,COc1ccc(NC(=O)C2CCN(S(C)(=O)=O)c3ccccc3O2)cc1Cl (centres undefined),921
15,COc1ccccc1N1CCN(C(=O)c2cn3ccccc3n2)CC1,603
16,CCc1nc(-c2csc(S(=O)(=O)N3CCC(C(=O)Nc4ccc(F)cc4C)CC3)c2)no1,963
17,COCCn1nc2n(c1=O)CCN(Cc1cccc(OC)n1)CC2,515
18,CCc1cc(=O)n(CC(=O)Nc2ccc(C)cc2C)c(N)n1,631
19,CCC1(O)CCOC2(CCN(Cc3cccc(OC)n3)CC2)C1 (centres undefined),602
20,Cc1cnn(Cc2nc(-c3ccc(NC(=O)c4sccc4C)cc3)oc2C)c1,938
21,CC(C)CCN1CCC(N(Cc2cccnc2)C2CCOCC2)CC1,551
22,COCCNC(=O)COc1nc(C)nc2onc(-c3ccc(F)cc3)c12,782
23,COCc1cnc2c(c1SCc1cccc(F)c1)c(=O)n(C)c(=O)n2C,960

row,Compound,RP-LC retention time [s]
1,O=C(Cn1ccc2ccccc21)N1CCN(c2ccc(F)cc2)CC1,884
2,COc1cc(C2OC(c3cccnc3)=NN2C(C)=O)cc(OC)c1OC (centres undefined),700
3,COCCN1C(=O)c2cccn2CC1CNC(=O)Cc1c(C)noc1C (centres undefined),610
4,CC1CN2C=NC(N3CCN(C(=O)Nc4cc(F)cc(F)c4)CC3)=CC2=N1 (centres undefined),664
5,Cn1c(=O)c(N2CCC(NC(=O)Nc3ccccc3F)CC2)nc2ccccc21,910
6,CCOC(=O)C1=C(C)NC(C)=C(C(=O)OCC)C1c1c(F)c(F)c(F)c(F)c1F,1240
7,O=C(Nc1cnn(-c2ncc(N3CCCCC3)cn2)c1)c1ccccc1C(F)(F)F,865
8,Cc1nc2cc(-c3noc(-c4cccc(Br)c4)n3)ccc2n(C)c1=O,1170
9,COc1cccc(NC(=O)CN2C(=O)C3CCCCN3c3ccc(S(=O)(=O)N(C)C)cc32)c1 (centres undefined),902
10,CCc1cc(=O)n(CC(=O)NCc2cccs2)c(-c2ccccc2)n1,1040
11,O=C(c1ccoc1)N1CCN(C(=O)c2nnn3c2COC(c2ccc(Cl)cc2)C3)CC1 (centres undefined),838
12,COCCn1cc(CCNC(=O)Nc2cccc(C)c2)c2cccnc21,728
13,CCOc1ccc(-c2csc(Cc3nc(-c4ccc(Cl)cc4)no3)n2)cc1,1360
14,CC(=O)c1cccc(C(=O)NC2(c3nc(C)no3)CCCCC2)c1,798
15,C=C1C(=O)OC2CC(C)C3(O)CCC(=O)C3(C)CC12 (centres undefined),775
16,Cc1cc(C(=O)NCCCN2CCCC2=O)c2c(C)nn(-c3ccccc3)c2n1,732
17,CCN1CCCn2cc(S(=O)(=O)Nc3cccc(F)c3)cc2C1=O,716
18,Cc1ccc(-c2noc(C3CCCN3S(=O)(=O)c3ccc4c(c3)CCCC4)n2)cc1 (centres undefined),1350
19,CCSc1nc2ccc(NS(=O)(=O)c3ccc(C)c(C)c3)cc2s1,1080
20,O=C(NCc1ccc2c(c1)OCO2)c1csc(NS(=O)(=O)c2cccs2)n1,721
21,COC(=O)c1cccc(NC(=O)NC2CCN(c3ccc(C)c(C)c3)C2=O)c1 (centres undefined),847
22,COc1ccc(NC(=O)/C=C/c2ccc(Cl)cc2)cc1,1090
23,Cc1noc(CNC(=O)Cn2cnc3ccccc3c2=O)n1,576

row,Compound,RP-LC retention time [s]
1,CCOc1ccc(NC(=O)C2CCN(S(C)(=O)=O)c3cc(C)ccc3O2)cc1 (centres undefined),972
2,Cc1csc(NC(=O)Cn2c(=O)n(C(C)C)c3ccc(-c4noc(C)n4)cc32)n1,780
3,O=C(Nc1ccc(C2(C(=O)NCC3CCCO3)CC2)cc1)c1cccs1 (centres undefined),753
4,Cc1ccc(CNC(=O)c2nnc(-c3ccc(S(=O)(=O)N4CCOCC4)cc3)o2)cc1,863
5,COc1ccc2c(c1)C1(CCN(C(=O)c3ccccc3)C1)C(=O)N2 (centres undefined),692
6,Cc1ccccc1S(=O)(=O)N1CCC2(CC1)CC(C)(O)CCO2 (centres undefined),778
7,O=C(NCc1ccc(Cl)cc1)c1c(O)c2cccnc2n(-c2ccc(F)cc2)c1=O,1230
8,Brc1ccc(C(c2nnc(-c3ccccc3)o2)N2CCN(c3ccccn3)CC2)cc1 (centres undefined),800
9,COc1ccc(NC(=O)N2CCC(n3c(C(F)(F)F)nc4cccnc43)CC2)cc1,898
10,COc1ccc(NC(=O)Cn2c(N3CCOCC3)nc(C)cc2=O)cc1,609
11,O=C(NCc1ccccc1Br)c1cn2ccccc2n1,736
12,O=C(NC1CC1)c1ncoc1-c1ccccc1C(=O)N1CCCCC1,689
13,O=C(NCc1ccc2c(c1)OCO2)C1CCN(C(=O)c2cc(-c3cccnc3)n[nH]2)CC1,656
14,O=C1C(=O)N(Cc2ccc(C(=O)N3CCCCC3)cc2)CCN1Cc1ccc(F)cc1,735
15,CCOC(=O)c1noc2ncnc(Nc3cccc(CC)c3)c12,1060
16,CCN(CC)CCNC(=O)c1nn(-c2ccc(Cl)cc2)c2c1CCc1cc(OC)ccc1-2,774
17,COC(=O)c1cccc(C(=O)Nc2cc(C)ccc2C)n1,936
18,Cc1ccc(C)c(N2CCN(c3ccnc(SCC(=O)NCc4ccc5c(c4)OCO5)n3)CC2)c1,859
19,CN1CCN(c2ccc(CNC(=O)C3CCc4sc(C(=O)N(C)C)cc4C3)cc2)CC1 (centres undefined),576
20,Cc1nn(C)c(C)c1S(=O)(=O)N1CCN(C(=O)C(C)Oc2ccccc2)CC1 (centres undefined),761
21,Cc1ccn2cc(-c3ccc(NS(=O)(=O)c4ccc(F)cc4)cc3)nc2n1,649
22,CCOc1ccccc1NC(=O)Cn1ncc2c(N3CCN(c4ccccn4)CC3)ncnc21,628
23,COc1ccc(NC(=O)CCC2CCCN(c3cc(NC4CC4)ncn3)C2)cc1OC (centres undefined),645

row,Compound,RP-LC retention time [s]
1,CCOc1nccnc1NC1CCN(C(=O)c2ccc(C)s2)CC1,726
2,CCCC(=O)Nc1ccc2nc(N3CCN(CC(=O)NCCOC)CC3)cc(C(=O)O)c2c1,839
3,CN1C(=O)C(C)(C(=O)Nc2ccc(Cl)cc2F)Oc2cccnc21 (centres undefined),894
4,COC(=O)c1cnc2nc(-c3ccccc3Cl)nn2c1C,860
5,O=C(c1cc(Cl)ccc1Cl)N1CCN(CC(O)c2cccs2)CC1 (centres undefined),581
6,CC(NC(=O)c1cn2c(n1)CCCC2)c1ccc(F)cc1 (centres undefined),612
7,COc1cccc(-c2noc(-c3nn(-c4ccc(F)c(F)c4)ccc3=O)n2)c1OC,796
8,CCc1ccc(C(C)NC(=O)C2CCN(c3cncnc3N3CCOCC3)CC2)cc1 (centres undefined),697
9,CCn1c(C(=O)NCCCN2CCCC(C)C2)cc2cc(S(=O)(=O)N(C)C)ccc21 (centres undefined),677
10,COC(=O)c1cccc(Nc2c(-c3ccccc3)nc3cnccn23)c1,834
11,O=C(NCC(=O)N1CCc2ccccc21)Nc1cccc(Br)c1,894
12,COc1ccc(C2Cn3nnc(C(=O)N4CCN(C(=O)c5cc(F)ccc5F)CC4)c3CO2)cc1 (centres undefined),872
13,CC1=NS(=O)(=O)N(Cc2ccccc2)C=C1C(=O)OCc1nc(-c2ccc(Cl)cc2)no1,1220
14,Cc1ccc(-c2csc(NC(=O)Cc3ccc(Cl)cc3)n2)cc1,1120
15,Cc1c(S(=O)(=O)N2CCN(c3ccccn3)CC2)cc(-c2nc(-c3ccccc3)cs2)n1C,885
16,CC1(C(=O)NC2CCCC2)CN(S(C)(=O)=O)CC(=O)N1Cc1ccc(Cl)cc1 (centres undefined),834
17,O=C(NCCC1=CCCCC1)C1CCCN(c2ccnc(-c3ccc(F)cc3)n2)C1 (centres undefined),752
18,CCN(CC)S(=O)(=O)c1ccc(F)c(-c2nnc(-c3ccccc3Br)o2)c1,1090
19,CCNCc1cc(C(C)(C)C)c(O)c(C(C)(C)C)c1,753
20,CCOC(=O)CNC(=O)N1CCC(N2CCN(Cc3cccc(C)c3)C2=O)CC1,725
